Measured values from patent US4418205A, “16-Amino-18,19,20-trinor-prostaglandin derivatives, and acid addition salts” (priority 1980, dated 1983).
Read-outs that look alike come from different tables or passages of the source.

Assays:
[1] = system: mice being in the 16th to 17th day of their pregnancy; assay: Abortion induction in mice in the 3rd trimestre of pregnancy, subcutaneous; type: in vivo; settings: pregnant mice; for ED50: Mus musculus, sc, 16th to 17th day, subcutaneous, abortions within 48 hours, obtained by interpolation, read-out: Approx. ED50 (dose inducing abortion in 50 percent of the animals)
Description: According to one of the test methods /M. J. K. Harper and R. C. Skarnes: Advances in Biosciences 9, 789 /1973// the test material was administered subcutaneously to mice being in the 16th to 17th day of their pregnancy /3rd trimestre/, then the number of abortions ensuing with 48 hours was registered, as well as the live and dead fetuses following the removal of the uterus, and the scars on the placenta.
(§1) Applying the above methods the dose-response relationship was established at PGF2α, and its methyl ester, as well as the compounds of general formula I of the present invention. The number of animals was 5 per dose.

[2] = system: hamsters being in the 4th, 5th, and 6th day of pregnancy; assay: Interruption of early pregnancy in hamsters, subcutaneous; type: in vivo, hamster; settings: for ED50: Mesocricetus auratus, sc, hamster, 1st trimestre, treated subcutaneously day 4, 5, 6, autopsy day 8, read-out: Approx. ED50
Description: (§2) Here hamsters being in the 4th, 5th, and 6th day of pregnancy were treated subcutaneously, and following autopsy on the 8th day, the number of intrauterine embryonal implantations, as well as the condition of the ovaria were investigated /N. S. Crossley: Prostaglandins 10, 5 /1975//. Similarly rats were treated on the 4th, 5th, 6th and 7th day of pregnancy, and killed on the 9th day, and the interruption of pregnancy registered at the autopsy /W. Skuballa et al.: J. Med. Chem. […], 443 /1978//.
as §1
(§3) A similar increase in potency could be observed at the treatment of animals being in the 1st trimestre of their pregnancy.
The 50 fold increase in potency compared to that of PGF2α is especially worth mentioning in the case of hamsters, as this test is suitable for the sensitive detection of the abortive effect of a given compound if it has lutheolytic activity.

[3] = system: rats treated on the 4th, 5th, 6th and 7th day of pregnancy; assay: Interruption of early pregnancy in rats; type: in vivo; settings: rat, 1st trimestre, treated day 4, 5, 6, 7, killed day 9; read-out: Approx. ED50
Description: as §2, §1, §3

pregnant mice = settings: mouse, in vivo

SMILES | ED50 [1] [mg/kg] | ED50 [2] [mg/kg] | ED50 [3] [mg/kg] | incidence of diarrhoea (pregnant mice; 10 mg/kg) | potency compared to PGF2α ([1]; from ED50 values) [fold] | potency compared to PGF2α methyl ester ([1]; from ED50 values) [fold] | increase in potency compared to that of PGF2α ([2]; hamsters) [fold] | induction of diarrhoea (pregnant mice; 3 mg/kg) | incidence of diarrhoea (pregnant mice; 3 mg/kg)
CCCCC[C@H](O)/C=C/[C@@H]1[C@@H](C/C=C\CCCC(=O)O)[C@@H](O)C[C@H]1O [PGF2α, reference compound] | ~16 | ~0.025 | ~1 | over 50% |  |  |  |  | 
COC(=O)CCC/C=C\C[C@@H]1[C@@H](/C=C/C(O)[C@@H](N)Cc2ccccc2)[C@H](O)C[C@@H]1O (single isomer, unassigned) [9α,11α,15/.xi./-Trihydroxy-16/S/-amino-17-phenyl-5-cis,13-trans-18,19,20-trinor-prostadienoic acid methyl ester] | ~1.2 | ~0.0005 | ~0.1 |  | 13 | 8 | 50 | failed to induce diarrhoea | 
CCCCC[C@H](O)/C=C/[C@@H]1[C@@H](C/C=C\CCCC(=O)OC)[C@@H](O)C[C@H]1O [PGF2α -methyl ester, reference compound] | ~10 |  |  |  |  |  |  |  | over 50%
